This note sets out measurements from patent publication US8901118B2, “Compounds and methods for kinase modulation, and indications therefor” (Plexxikon Inc., priority 2010, dated 2014).

Bounds are passed on as bounds.

The target in experiment [1] is TrkC kinase (Homo sapiens, UniProt Q16288). Description: TrkC kinase biochemical activity assay (similar to TrkA assay). The note with it: read-out: Biochemical Inhibition IC50 TrkC. The protocol: In one assay the biochemical activity IC50 values are determined with respect to inhibition of TrkA kinase activity, where inhibition of phosphorylation of a peptide substrate is measured as a function of compound concentration. Compounds to be tested, dissolved in DMSO (1 μL), are added to a white 384-well plate (Costar #3705). Working stocks of TrkA kinase (UBI), biotin-(E4Y)10 substrate (Upstate Biotech, Cat#12-440), and ATP (Sigma, Cat#A-3377) are prepared in 25 mM Hepes pH 7.5, 10 mM MnCl2, 1 mM DTT, 0.01% BSA, and 0.01% Tween-20. All components are added to the 384-well plate for a final concentration of 1 ng/well TrkA, 30 nM biotin-(E4Y)10 and 100 μM ATP in a volume of 20 μL. Each sample is at 5% DMSO. The plate is shaken for 1 minute at 1200 rpm, spun for 1 minute at 1000 rpm, then incubated for 40 minutes at room temperature. Just before use, working stocks of donor and acceptor beads from the AlphaScreen PY20 Detection Kit (PerkinElmer, Cat#676601M) are prepared in 25 mM Hepes pH 7.5, 100 mM EDTA. 0.01% BSA. Donor Beads solution (Streptavidin beads) is added (5 μL) to each well to final bead concentration of 10 μg/mL. The plate is incubated at room temperature for 20 minutes. Acceptor Beads solution (PY20 coated beads) are then added to each well (5 μL) to a final concentration of bead at 10 μg/mL. The plates are incubated at room temperature for 60 minutes. Fluorescence signal is recorded on the Envision reader. Phosphorylated substrate results in binding of the PY20 antibody and association of the donor and acceptor beads such that signal correlates with kinase activity. The signal vs. compound concentration is used to determine the IC50. Similar assays are used for TrkB and Trk C kinase.

In experiment [2] the test system is BCR-TRK2 BaF3 cells. Description: Splenomegaly mouse model, BCR-TRK2 BaF3 cells. It is filed as in vivo. As for the experimental part:
(§1) BaF3 cells are engineered with any of BCR-FMS, BCR-TRK1 or BCR-TRK2 to assess in vivo inhibitory effects of Fms, TrkA or TrkB inhibition, respectively. BaF3 cells are maintained in growth media (RPMI containing 10% FBS, 1% PenStrep, 1% NEAA, and 1% L-Glutamine, supplemented with 5% murine IL-3 and 1 mg/mL G418). Four days prior to start, 2×10^6 cells are inoculated into a T150 vented flask using the growth media and incubated at 37° C. in 5% CO2 for three days. One day prior to start, cells are collected by centrifugation and are suspended in growth media without IL-3. On the day of cell implant, the cells are collected by centrifugation, rinsed 3×20 mL with RPMI, then are suspended in 5.4 mL of media and counted, then adjusted with additional RPMI as needed to give 5×10^7 cells/mL. On day 1, female nu/nu mice at 5-6 weeks of age are injected intravenously with BaF3 cells injected injecting 0.1 mL (5×10^6) cells in the tail vein (mice without cell injected are included as control group). Compound stocks in dimethylsulfoxide are stored at room temperature protected from light. Stocks are diluted prior to dosing, diluting 22 μL of compound stock into 858 μL of diluent (or 50 μL into 1950 μL) to provide vehicle of 1.0% Polysorbate 80, 0.5% hydroxypropyl methyl cellulose, with final dimethylsulfoxide at 2.5% in all dosing suspensions and vehicle control. Dosing suspension is prepared prior to use, mixing by inversion and sonication in a water bath to make a uniform suspension. On days 10-18, mice are treated with vehicle only or the desired level of compound in vehicle, ˜0.2 mL per 25 gm mouse, once a day by oral gavage, or in some instances, twice per day. On day 18, mice are administered a final dose and two hours later a plasma sample is taken. At four hours following the final dose, mice are sacrificed, an additional plasma sample is collected and mouse spleens are removed and weighed. The average spleen weight of vehicle control group mice is compared to the average spleen weight of the test compound mice. Percent spleen growth inhibition is calculated as 100×[(spleen weight vehicle control-spleen weight test compound)/spleen weight vehicle control]. In some instances, the compounds were not tested in all of the assays as indicated by NA in the table below.

In experiment [3] the test system is BCR-FMS BaF3 cells. Description: Splenomegaly mouse model, BCR-FMS BaF3 cells. The format is in vivo. As for the experimental part:
as §1

Experiment [4] relates to BCR-TRK1 BaF3 cells. Description: Splenomegaly mouse model, BCR-TRK1 BaF3 cells. The format is in vivo. The protocol:
as §1, with “The average spleen weight of vehicle control group mice is compared to the average spleen weight of the test compound mice.” left out, “In some instances, the compounds were not tested in all of the assays as indicated by NA in the table below.” left out

Setting [5] is: dosed once per day at 10 mg per kg.

Chain of TrkC kinase (Q16288 32-839): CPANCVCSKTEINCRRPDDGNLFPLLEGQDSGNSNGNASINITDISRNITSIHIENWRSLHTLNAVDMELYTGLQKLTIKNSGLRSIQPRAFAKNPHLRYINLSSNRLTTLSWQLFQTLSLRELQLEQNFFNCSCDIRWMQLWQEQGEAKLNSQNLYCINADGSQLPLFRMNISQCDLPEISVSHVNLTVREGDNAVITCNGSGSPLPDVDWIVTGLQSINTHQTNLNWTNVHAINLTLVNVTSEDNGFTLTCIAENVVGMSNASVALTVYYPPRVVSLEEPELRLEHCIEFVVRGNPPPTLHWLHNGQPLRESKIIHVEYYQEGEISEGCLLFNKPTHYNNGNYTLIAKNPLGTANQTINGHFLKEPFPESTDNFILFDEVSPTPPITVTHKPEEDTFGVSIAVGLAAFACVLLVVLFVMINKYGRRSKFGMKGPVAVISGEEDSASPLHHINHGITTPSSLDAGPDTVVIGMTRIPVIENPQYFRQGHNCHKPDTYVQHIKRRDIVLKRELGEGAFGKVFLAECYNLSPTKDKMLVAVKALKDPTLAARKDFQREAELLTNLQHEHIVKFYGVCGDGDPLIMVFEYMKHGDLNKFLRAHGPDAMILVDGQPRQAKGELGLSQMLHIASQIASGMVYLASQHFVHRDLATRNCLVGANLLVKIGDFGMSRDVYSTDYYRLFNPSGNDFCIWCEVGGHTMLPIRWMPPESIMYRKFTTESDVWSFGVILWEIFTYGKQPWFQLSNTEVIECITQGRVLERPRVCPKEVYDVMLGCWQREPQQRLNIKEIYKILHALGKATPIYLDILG

As to `COc1ccc(Nc2ccc(Cc3c[nH]c4ncc(C)cc34)c(F)n2)cn1` [Compound P-3019, [6-fluoro-5-(5-methyl-1H-pyrrolo[2,3-b]pyridin-3-ylmethyl)-pyridin-2-yl]-(6-methoxy-pyridin-3-yl)-amine], the IC50 (usually the concentration that gives 50% inhibition) in experiment [1] was under 100 nM. The “% spleen growth inhibition, TrkB” value in experiment [2] (setting [5]) came out at 14%. For the same molecule, the “% spleen growth inhibition, Fms” value in experiment [3] (setting [5]) is 40%.

On to `CCOc1ccc(Nc2ncc(Cc3c[nH]c4ncc(C)cc34)cn2)cn1` [Compound P-3027, (6-Ethoxy-pyridin-3-yl)-[5-(5-methyl-1H-pyrrolo[2,3-b]pyridin-3-ylmethyl)-pyrimidin-2-yl]-amine], for which, in experiment [1], the IC50 is under 100 nM. The “% spleen growth inhibition, TrkB” value in experiment [2] (setting [5]) is recorded as 2%. Also, the “% spleen growth inhibition, Fms” value in experiment [3] (setting [5]) was 42%.

Take `COc1ccc(Nc2ccc(Cc3c[nH]c4ncnc(C)c34)c(F)n2)cn1` [Compound P-4002, [6-Fluoro-5-(4-methyl-7H-pyrrolo[2,3-d]pyrimidin-5-ylmethyl)-pyridin-2-yl]-(6-methoxy-pyridin-3-yl)-amine]: in experiment [1], the IC50 was under 1000 nM.

`COc1ncnc2[nH]cc(Cc3ccc(Nc4ccc(C5CC5)nc4)nc3F)c12` [Compound P-4004, (6-Cyclopropyl-pyridin-3-yl)-[6-fluoro-5-(4-methoxy-7H-pyrrolo[2,3-d]pyrimidin-5-ylmethyl)-pyridin-2-yl]-amine]: the “% spleen growth inhibition, TrkA” value in experiment [4] (dosed at 30 mg/kg) was found to be 40%; in experiment [4] (setting [5]) it was 16%. The “% spleen growth inhibition, TrkB” value in experiment [2] (dosed at 30 mg/kg) stood at 91%; in experiment [2] (setting [5]) it was 41%. Besides, the “% spleen growth inhibition, Fms” value worked out at 70% in experiment [3] (dosed at 30 mg/kg) and 36% in experiment [3] (setting [5]).

Consider `CCOc1ccc(Nc2ccc(Cc3c[nH]c4ncnc(OC)c34)c(F)n2)cn1` [Compound P-4005, (6-Ethoxy-pyridin-3-yl)-[6-fluoro-5-(4-methoxy-7H-pyrrolo[2,3-d]pyrimidin-5-ylmethyl)-pyridin-2-yl]-amine], for which the “% spleen growth inhibition, TrkA” value in experiment [4] (setting [5]) was 25%. In experiment [2] (setting [5]), the “% spleen growth inhibition, TrkB” value is reported as 35%. Also, the “% spleen growth inhibition, Fms” value in experiment [3] (setting [5]) is on record as 65%.

In the case of `CCOc1ccc(Nc2ccc(Cc3c[nH]c4ncnc(C)c34)c(F)n2)cn1` [Compound P-4006, (6-Ethoxy-pyridin-3-yl)-[6-fluoro-5-(4-methyl-7H-pyrrolo[2,3-d]pyrimidin-5-ylmethyl)-pyridin-2-yl]-amine], the “% spleen growth inhibition, TrkB” value in experiment [2] (setting [5]) is on record as 21%. Further, the “% spleen growth inhibition, Fms” value in experiment [3] (setting [5]) came to 55%.

Consider `CCc1ccc(Nc2ccc(Cc3c[nH]c4ncnc(OC)c34)c(F)n2)cn1` [Compound P-4007, (6-Ethyl-pyridin-3-yl)-[6-fluoro-5-(4-methoxy-7H-pyrrolo[2,3-d]pyrimidin-5-ylmethyl)-pyridin-2-yl]-amine], for which the “% spleen growth inhibition, TrkB” value in experiment [2] (setting [5]) was determined as 19%. For the same molecule, the “% spleen growth inhibition, Fms” value in experiment [3] (setting [5]) came out at 28%.

Take `COc1ccc(Nc2ccc(C(=O)c3c[nH]c4ncnc(C5CC5)c34)c(F)n2)cn1` [Compound P-4022, (4-cyclopropyl-7H-pyrrolo[2,3-d]pyrimidin-5-yl)-[2-fluoro-6-(6-methoxy-pyridin-3-ylamino)-pyridin-3-yl]-methanone]: in experiment [2] (setting [5]), the “% spleen growth inhibition, TrkB” value was found to be 33%. The “% spleen growth inhibition, Fms” value in experiment [3] (setting [5]) worked out at 42%.

Take `CCc1ccc(Nc2ccc(Cc3c[nH]c4ncnc(C5CC5)c34)c(F)n2)cn1` [Compound P-4028, [5-(4-Cyclopropyl-7H-pyrrolo[2,3-d]pyrimidin-5-ylmethyl)-6-fluoro-pyridin-2-yl]-(6-ethyl-pyridin-3-yl)-amine]: the “% spleen growth inhibition, TrkB” value in experiment [2] (setting [5]) came out at 88%. The “% spleen growth inhibition, Fms” value in experiment [3] (setting [5]) amounted to 86%.

As for `Cc1ccc(Nc2ccc(Cc3c[nH]c4ncnc(C5CC5)c34)c(F)n2)cn1` [Compound P-4030, [5-(4-Cyclopropyl-7H-pyrrolo[2,3-d]pyrimidin-5-ylmethyl)-6-fluoro-pyridin-2-yl]-(6-methyl-pyridin-3-yl)-amine], in experiment [2] (setting [5]), the “% spleen growth inhibition, TrkB” value is 50%. Further, the “% spleen growth inhibition, Fms” value in experiment [3] (setting [5]) is 58%.
